Measured values as given in US7745390B2, “Antimicrobial peptides” (priority 2005, dated 2010).
Ends that are not written are not given here.

How the values were obtained:
Salmonella = format: cell-based, S. typhimurium; conditions: pH 7.2
Experimental: (§1) The experiments described above characterizing the activity of granulysin peptides G1-G18 relied on counting bacterial colonies on plates. This assay is quite labor intensive and would not allow evaluation of many different compounds on a number of different microbes. Therefore, we optimized an assay in which the entire procedure could be completed in a single microtiter well. Briefly, peptides are diluted in 10 mM phosphate buffer, pH 7.2 supplemented with 0.03% LB (J. Sambrook, D. W. Russell, Molecular Cloning: A Laboratory Manual (Cold Spring Harbor Laboratory Press, New York, ed. 3, 2001) pg. A2.2, Retrieved from http://openwetware.org/wiki/LB) and 25 μl is added to microtiter wells. Bacteria (25 μl) are added (˜5×10^6 colony forming units/ml) in the same buffer. After a 3-hour incubation at 37° C., 150 μl of LB is added and the plates are incubated overnight. The OD at 600 nm is read on an ELISA plate reader. The minimum inhibitory concentration (MIC) is the lowest concentration allowing no bacterial growth. The IC50 is the concentration of peptide that results in 50% growth compared to the medium.
(§2) We now describe additional peptides and their activity. The peptides have been designed, synthesized, and have been tested for lysis of E. coli and S. typhimurium (gram negative bacteria), B. cereus (gram positive bacterium). Results are shown in Table 2 along with the amino acid sequence of the peptide. Changes from the naturally occurring sequence are underlined. In general, the desired result is lysis of bacteria at low concentration (<1 μM).
(§3) In Table 2, Columns 2-7 are the MIC and IC50 (concentration required for 50% inhibition of growth) for each organism (E. coli, Salmonella, and B. cereus). The MIC (minimum inhibitory concentration) was determined as described above, in a multiwell plate assay. […] L-isomer amino acids are designated by capital letters while D-isomer amino acids are designated by lower case letters.

E. coli DH5a = format: cell-based; conditions: DH5a, pH 7.2
Experimental: as §1, §2, §3

B. cereus = format: cell-based; conditions: pH 7.2
Experimental: as §1, §2, §3

Sequence | IC50 (Salmonella) | Salmonella MIC (Salmonella) | E. coli DH5a MIC (E. coli DH5a) | IC50 (E. coli DH5a) | B. cereus MIC (B. cereus) | IC50 (B. cereus)
QRAVARAATRVARTGRARWRDVARNFMRR [Peptide G8.5] | 420 nM | 0.7 µM | 1.4 µM | 880 nM | 1.4 µM | 880 nM
QRAVARAATRVARTGRARWRDVARRFMRR [Peptide G8.7] | 420 nM | 0.7 µM | 1.4 µM | 850 nM | 0.7 µM | 450 nM
QRAVARAATRVARTGRARWRRVARRFMRR [Peptide G8.10] | 210 nM | 0.35 µM | 0.63 µM | 450 nM | 0.75 µM | 450 nM
QRRSSRFMRRYQRVVPRGLV [Peptide G12.24] | 700 nM | 1.4 µM | 0.8 µM | 420 nM | 0.8 µM | 420 nM
QRSVSNAATRVCRT [Peptide G10, QRSVSNAATRVCRT, reference compound] | > 10000 nM | >10 µM | >10 µM | > 10000 nM | >10 µM | > 10000 nM
QRSVSNAATRVSRTGRSRWRDVSRRFMRR [Peptide G8.3] | 450 nM | 0.67 µM | 0.7 µM | 550 nM | 1.25 µM | 700 nM
QRSVSNPPTRVSRPPRSRWRDVSRPPMRR [Peptide G8.16] | > 10000 nM | >10 µM | 0.7 µM | 400 nM | >10 µM | 7300 nM
QRSVSRAATRVCRTGRSNW [Peptide G13.10, QRSVSRAATRVCRTGRSNW] | > 10000 nM | >10 µM | 0.71 µM | 250 nM | 5.6 µM | 3500 nM
QRSVSRAATRVSRTGRSNWRDVGRRFMRR [Peptide G8.15] | 410 nM | 0.7 µM | 0.8 µM | 450 nM | 0.7 µM | 450 nM
QRSVSRAATRVSRTGRSRW [Peptide G13.2, QRSVSRAATRVSRTGRSRW] | 7300 nM | >10 µM | 1.37 µM | 850 nM | 5.6 µM | 3400 nM
QRSVSRAATRVSRTGRSRWRDVSRNFMRR [Peptide G8.2] | 550 nM | 1.4 µM | 1.4 µM | 580 nM | 1.39 µM | 510 nM
QRSVSRAATRVSRTGRSRWRDVSRRFMRR [Peptide G8.4] | 210 nM | 0.35 µM | 0.7 µM | 450 nM | 0.7 µM | 450 nM
QRSVSRAPTRVSRTGRSRW [Peptide G13.8, QRSVSRAPTRVSRTGRSRW] | > 10000 nM | >10 µM | 5.7 µM | 3300 nM | >10 µM | 7700 nM
QRSVSRPPTRVSRPPRSRW [Peptide G13.13, QRSVSRPPTRVSRPPRSRW] | 1400 nM | >10 µM | 5.1 µM | 380 nM | >10 µM | > 10000 nM
QRSVSRPPTRVSRTGRARW [Peptide G13.12, QRSVSRPPTRVSRTGRARW] | > 10000 nM | >10 µM | 5.65 µM | 1750 nM | >10 µM | > 10000 nM
QRSVSRPPTRVSRTGRSRW [Peptide G13.11, QRSVSRPPTRVSRTGRSRW] | > 10000 nM | >10 µM | 5.75 µM | 2720 nM | >10 µM | > 10000 nM
RDVARRFMRRQSRVISRLV [Peptide G12.15, RDVARRFMRRQSRVISRLV] | 420 nM | 0.69 µM | 1.4 µM | 890 nM | 2.8 µM | 1750 nM
RDVCRNFMRR [Peptide G11, RDVCRNFMRR, reference compound] | > 10000 nM | >10 µM | >10 µM | > 10000 nM | >10 µM | > 10000 nM
RDVSRRFMRRGRDVSRRFMRR [Peptide G11.38] | 820 nM | 1.35 µM | 0.7 µM | 420 nM | 1.4 µM | 890 nM
RDVSRRFMRRQSRVIQGLV [Peptide G12.3, RDVSRRFMRRQSRVIQGLV] | 3500 nM | 5.5 µM | 5.7 µM | 3510 nM | >10 µM | 7700 nM
RDVSRRFMRRRDVSRRFMRR [Peptide G11.39] | 1700 nM | 2.75 µM | 0.7 µM | 220 nM | 0.7 µM | 450 nM
RRDSRRFMRR [Peptide G11.11, RRDSRRFMRR] | > 10000 nM | >10 µM | >10 µM | 7450 nM | >10 µM | > 10000 nM
RRLLRRLLRR [Peptide G11.20, RRLLRRLLRR] | 7690 nM | >10 µM | >10 µM | 7700 nM | >10 µM | > 10000 nM
RRLLRRLLRRGSRRLLRRLLRR [Peptide G11.23] | 450 nM | 0.71 µM | 0.7 µM | 450 nM | 0.7 µM | 410 nM
RRPSRRFPRR [Peptide G11.37, RRPSRRFPRR] | 1680 nM | 2.9 µM | 2.4 µM | 450 nM | >10 µM | > 10000 nM
RRVSRRFMRR [Peptide G11.3, RRVSRRFMRR] | > 10000 nM | >10 µM | 2.85 µM | 1760 nM | >10 µM | 7700 nM
RRVSRRFMRR [Peptide G11.44, RRVSRRFMRR] | 3150 nM | 5.75 µM | 0.38 µM | 210 nM | >10 µM | 7700 nM
RRVSRRFMRRGSRRVSRRFMRR [Peptide G11.7] | 210 nM | 0.35 µM | 0.35 µM | 210 nM | 0.35 µM | 210 nM
RRVSRRFMRRGSRRVSRRFMRRGSRRVSRRFMRR [Peptide G11.10] | 210 nM | 0.35 µM | 0.35 µM | 210 nM | 0.35 µM | 210 nM
RRVSRRFMRRSGSGSGSGQQMVQQSGQQFS [Peptide G11.40] | > 10000 nM | >10 µM | >10 µM | 3280 nM | >10 µM | > 10000 nM
